Source: US11370771B2, “Inhibitors of TRPC6” (Boehringer Ingelheim International GmbH, priority 2018, dated 2022)

Legend:
PASMC = conditions: cited from earlier work
TRPC6 = conditions: lung tissue of IPAH patients; cited from earlier work
human TRPC6 = target: T1, human TRPC6 (Homo sapiens, UniProt Q9Y210); assay: High Throughput Screening Assay Method 1 (FLIPR membrane potential dye, OAG activation, HEK293 cells expressing human TRPC6); format: cell-based; conditions: antagonist effect against human TRPC6, 60 μM OAG, read-out: Fluorescence TRPC6 IC50
T1 construct: expressed in transfected cells
T1 sequence (Q9Y210 1-931): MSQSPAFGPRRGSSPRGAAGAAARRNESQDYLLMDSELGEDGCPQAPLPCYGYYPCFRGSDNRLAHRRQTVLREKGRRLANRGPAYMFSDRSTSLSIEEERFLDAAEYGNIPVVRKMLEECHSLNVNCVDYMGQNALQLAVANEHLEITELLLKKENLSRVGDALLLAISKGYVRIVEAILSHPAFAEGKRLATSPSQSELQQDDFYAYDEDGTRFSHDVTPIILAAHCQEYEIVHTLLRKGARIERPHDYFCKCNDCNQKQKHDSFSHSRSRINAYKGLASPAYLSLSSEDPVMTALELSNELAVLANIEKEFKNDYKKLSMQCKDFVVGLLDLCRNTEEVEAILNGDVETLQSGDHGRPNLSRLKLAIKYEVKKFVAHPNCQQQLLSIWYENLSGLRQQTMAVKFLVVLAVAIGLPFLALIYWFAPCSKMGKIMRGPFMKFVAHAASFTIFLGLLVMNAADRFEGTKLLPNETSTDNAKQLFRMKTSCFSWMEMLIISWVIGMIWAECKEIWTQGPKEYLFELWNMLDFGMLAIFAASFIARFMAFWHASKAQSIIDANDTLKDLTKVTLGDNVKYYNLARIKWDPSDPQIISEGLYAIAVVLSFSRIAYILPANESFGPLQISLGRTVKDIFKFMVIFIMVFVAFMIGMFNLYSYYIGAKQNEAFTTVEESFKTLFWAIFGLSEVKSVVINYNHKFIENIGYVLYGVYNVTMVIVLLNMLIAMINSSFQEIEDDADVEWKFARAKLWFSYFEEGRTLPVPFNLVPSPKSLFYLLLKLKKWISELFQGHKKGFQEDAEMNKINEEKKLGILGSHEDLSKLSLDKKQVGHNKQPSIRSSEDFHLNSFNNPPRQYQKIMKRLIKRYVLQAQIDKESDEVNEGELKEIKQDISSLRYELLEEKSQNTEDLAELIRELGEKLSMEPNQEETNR
Source text: This screening assay measures TRPC6 (transient receptor potential cation channel, subfamily C, member 6) ion channel activation via addition either of the commercially available DAG ligand analogue OAG (1-oleoyl-2-acetyl-sn-glycerol) or of the TRPC6 agonist 1-[1-(4,5,6,7,8-pentahydrocyclohepta[2,1-d]thiophen-2-ylcarbonyl)-4-piperidyl]-3-hydrobenzimidazol-2-one (GSK1702934A). The assay utilizes a FLIPR membrane potential (FMP) dye from Molecular Devices, which is a voltage sensitive indicator with a fluorescent quencher. Changes in membrane potential as measured by the fluorescent signal increase during membrane depolarization provide a measurement of channel activity.
The commercially available HEK293 cell line expressing human TRPC6 channel (Axxam/PerkinElmer) is scaled up in bulk and frozen in liquid nitrogen. Frozen cell stocks are thawed and re-suspended in culture media as recommended by the manufacturer supplemented with 0.5 mg/ml of geneticin to promote retention of the TRPC6 construct. Cells are plated at a density of 15,000 cells/well in Greiner 384 well poly-D-lysine coated black clear bottom plates, and incubated for 18-20 h at 37° C. and 5% CO2. To initiate the assay, the growth media is removed using a plate washer and 25 ul of a FMP dye mix is added to each well. The 4× stock FMP dye from the manufacturer is diluted 1× with assay buffer (low calcium Tyrode's assay buffer: 130 mM NaCl, 5 mM KCl, 0.15 mM CaCl2), 1 mM MgCl2, 5 mM NaHCO3, 20 mM HEPES pH 7.4) containing 36 μM BAPTA/AM. The cells are incubated at room temperature (19-22° C.) for 30 minutes. For the screening assay, 5 uL of diluted compound stock is added to each well and incubated for 15 minutes at room temperature (19-22° C.). Using the Hamamatsu FDSS6000 or FDSS7000, 10 uL of the synthetic, membrane permeant analog of 1,2 diacylglycerol (DAG), 1-oleoyl-2-acetoyl-n-glycerol (OAG), is added and fluorescent readings taken every second from 50 seconds to 3 minutes. […] Controls and blanks consisted of HEK293 TRPC6 cells that are exposed to OAG. A reference inhibitor added along with the test compound is included as part of the blanks. This inhibitor suppresses the TRPC6 channel activation. These controls set the screening window, and “hits” are defined as those compounds inhibiting the membrane depolarization caused by OAG by at least 50%. IC50 values are determined for compounds that meet these criteria by titrating compound stock at a final starting concentration of 30 μM using a 3-fold serial dilution for 11 points. Curves are generated by fitting each data set to a four-parameter logistic equation using nonlinear regression.

IC50 (human TRPC6) [nM]	SMILES	proliferation of PASMC (PASMC)	expression of TRPC6 (TRPC6)
	COc1ccccc1Oc1c(NS(=O)(=O)c2ccc(C(C)(C)C)cc2)nc(-c2ncccn2)nc1OCCO [bosentan]	decreases proliferation	decreases expression of TRPC6
351	Nc1ccc(C2CCN(C(=O)c3ccc(Oc4ccc(OC(F)(F)F)cc4)cc3)CC2)nn1 [Compound 4, 6-(1-{4-[4-(trifluoromethoxy)phenoxy]benzoyl}piperidin-4-yl)pyridazin-3-amine]		
191	Nc1ccc(N2CCN(C(=O)c3ccc(Oc4ccc(OC(F)(F)F)cc4)cc3)CC2)nn1 [Compound 21, 6-(4-{4-[4-(trifluoromethoxy)phenoxy]benzoyl}piperazin-1-yl)pyridazin-3-amine]		
1160	CCc1ccc(Oc2ccc(C(=O)N3CCN(c4ccc(N)nn4)CC3)cc2)cc1 [Compound 20, 6-{4-[4-(4-ethylphenoxy)benzoyl]piperazin-1-yl}pyridazin-3-amine]		
8880	Nc1ccc(N2CCN(C(=O)c3ccc(Oc4ccc(C(F)(F)F)c(F)c4)cc3)CC2)nn1 [Compound 22, 6-(4-{4-[3-fluoro-4-(trifluoromethyl)phenoxy]benzoyl}piperazin-1-yl)pyridazin-3-amine]		
39	Nc1ccc(C2CCN(C(=O)c3ccc(Oc4ccccc4)cc3)CC2)nn1 [Compound 3, 6-[1-(4-phenoxybenzoyl)piperidin-4-yl]pyridazin-3-amine]		
1230	Nc1ccc(N2CCN(C(=O)c3ccc(Oc4ccc5c(c4)OCO5)cc3)CC2)nn1 [Compound 8, 6-{4-[4-(2H-1,3-benzodioxol-5-yloxy)benzoyl]piperazin-1-yl}pyridazin-3-amine]		
